Common to all, as to format: cell-based
One assay deals with T1, Human Cav2.2 channels (Homo sapiens, UniProt Q00975).
T1 construct: expressed in transfected cells
In words: Block of Cav2.2 (N-type) channels expressed in HEK293 cells. Conditions: for inhibition at 10 µM / inhibition at 30 µM: HEK293; for inhibition at 10 µM: read-out: Cav 2.2 % Inh @ 10 μM; for inhibition at 30 µM: read-out: Cav 2.2 % Inh @ 30 μM; for IC50: read-out: Cav 2.2 IC50. From the text:
Human Cav2.2 channels were stably expressed in HEK293 cells along with alpha2-delta and beta subunits of voltage-gated calcium channels. An inwardly rectifying potassium channel (Kir2.3) was also expressed in these cells to allow more precise control of the cell membrane potential by extracellular potassium concentration. At low bath potassium concentration, the membrane potential is relatively negative, and is depolarized as the bath potassium concentration is raised. In this way, the bath potassium concentration can be used to regulate the voltage-dependent conformations of the channels. Compounds are incubated with cells in the presence of low (4 mM) potassium or elevated (12, 25 or 30 mM) potassium to determine the affinity for compound block of resting (closed) channels at 4 mM potassium or affinity for block of open and inactivated channels at 12, 25 or 30 mM potassium. After the incubation period, Cav2.2 channel opening is triggered by addition of higher concentration of potassium (70 mM final concentration) to further depolarize the cell. The degree of state-dependent block can be estimated from the inhibitory potency of compounds after incubation in different potassium concentrations.
Calcium influx through Cav2.2 channels is determined using a calcium sensitive fluorescent dye in combination with a fluorescent plate reader. Fluorescent changes were measured with either a VIPR (Aurora Instruments) or FLIPR (Molecular Devices) plate reader.
Protocol • 1. Seed cells in Poly-D-Lysine Coated 96 or 384-well plate and keep in a 37° C.-10% CO2 incubator overnight • 2. Remove media, wash cells with 0.2 mL (96-well plate) or 0.05 mL (384-well plate) Dulbecco's Phosphate Buffered Saline (D-PBS) with calcium & magnesium (Invitrogen; 14040) • 3. Add 0.1 mL (96-well plate) or 0.05 mL (384-well plate) of 4 μM fluor-4 (Molecular Probes; F-14202) and 0.02% Pluronic acid (Molecular Probes; P-3000) prepared in D-PBS with calcium & magnesium (Invitrogen; 14040) supplemented with 10 mM Glucose & 10 mM Hepes/NaOH; pH 7.4 • 4. Incubate in the dark at 25° C. for 60-70 min • 5. Remove dye, wash cells with 0.1 mL (96-well plate) or 0.06 mL (384-well plate) of 4, 12, 25, or 30 mM Potassium Pre-polarization Buffer (PPB) • 6. Add 0.1 mL (96-well plate) or 0.03 mL (384-well plate) of 4, 12, 25, 30 mM PPB with or without test compound • 7. Incubate in the dark at 25° C. for 30 min • 8. Read cell plate on VIPR instrument, Excitation=480 nm, Emission=535 nm • 9. With VIPR continuously reading, add 0.1 mL (96-well plate) or 0.03 mL (384-well plate) of Depolarization Buffer (DB), which is 2× the final assay concentration, to the cell plate.
Block of N-type calcium channels is evaluated utilizing the IonWorks HT 384 well automated patch clamp electrophysiology device. This instrument allows synchronous recording from 384 well (48 at a time). A single whole cell recording is made in each well. Whole cell recording is established by perfusion of the internal compartment with amphotericin B.
The voltage protocol is designed to detect use-dependent block. A 2 Hz train of depolarizations (twenty 25 ms steps to +20 mV). The experimental sequence consists of a control train (pre-compound), incubation of cells with compound for 5 minutes, followed by a second train (post-compound). Use dependent block by compounds is estimated by comparing fractional block of the first pulse in the train to block of the 20th pulse.
Parallel patch clamp electrophysiology is performed using IonWorks HT (Molecular Devices Corp) essentially as described by Kiss and colleagues (Kiss et al. 2003; Assay and Drug Development Technologies, 1:127-135). Briefly, a stable HEK 293 cell line (referred to as CBK) expressing the N-type calcium channel subunits (α1B, α2δ, β3a) and an inwardly rectifying potassium channel (Kir2.3) is used to record barium current through the N-type calcium channel. Cells are grown in T75 culture plates to 60-90% confluence before use. […]

Assay [1] has as its target T2, Cav3.2 (T-type channel alpha-1H) (Homo sapiens, UniProt O95180).
T2 construct: expressed in transfected cells; host or cells: HEK 293
The assay can be described thus: T-type calcium channel voltage-clamp assay, Cav3.2. Conditions: read-out: Cav 3.2 IC50. As to the method: (§1) The T-type calcium channel blocking activity of the compounds of this invention may be readily determined using the methodology well known in the art described by Xia, et al., Assay and Drug Development Tech., 1 (5), 637-645 (2003).
(§2) In a typical experiment ion channel function from HEK 293 cells expressing the T-type channel alpha-1G, H, or I (CaV 3.1, 3.2, 3.3) is recorded to determine the activity of compounds in blocking the calcium current mediated by the T-type channel alpha-1G, H, or I (CaV 3.1, 3.2, 3.3). In this T-type calcium (Ca^2+) antagonist voltage-clamp assay calcium currents are elicited from the resting state of the human alpha-1G, H, or I (CaV 3.1, 3.2, 3.3) calcium channel as follows. Sequence information for T-type (Low-voltage activated) calcium channels are fully disclosed in e.g., U.S. Pat. No. 5,618,720, U.S. Pat. No. 5,686,241, U.S. Pat. No. 5,710,250,U.S. Pat. No. 5,726,035, U.S. Pat. No. 5,792,846, U.S. Pat. No. 5,846,757, U.S. Pat. No. 5,851,824, U.S. Pat. No. 5,874,236, U.S. Pat. No. 5,876,958, U.S. Pat. No. 6,013,474, U.S. Pat. No. 6,057,114, U.S. Pat. No. 6,096,514, WO 99/28342, and J. Neuroscience, 19 (6):1912-1921 (1999). Cells expressing the t-type channels were grown in H3D5 growth media which is comprised DMEM, 6% bovine calf serum (HYCLONE), 30 micromolar Verapamil, 200 microgram/ml Hygromycin B, 1× Penicillin/Streptomycin. Glass pipettes are pulled to a tip diameter of 1-2 micrometer on a pipette puller. The pipettes are filled with the intracellular solution and a chloridized silver wire is inserted along its length, which is then connected to the headstage of the voltage-clamp amplifier. Trypsinization buffer was 0.05% Trypsin, 0.53 mM EDTA. The extracellular recording solution consists of (mM): 130 mM NaCl, 4 mM KCl, 1 mM MgCl2, 2 mM CaCl2, 10 mM HEPES, 30 Glucose, pH 7.4. The internal solution consists of (mM): 135 mM CsMeSO4, 1 MgCl2, 10 CsCl, 5 EGTA, 10 HEPES, pH 7.4, or 135 mM CsCl, 2 MgCl2, 3 MgATP, 2 Na2ATP, 1 Na2GTP, 5 EGTA, 10 HEPES, pH 7.4. Upon insertion of the pipette tip into the bath, the series resistance is noted (acceptable range is between 1-4 megaohm). The junction potential between the pipette and bath solutions is zeroed on the amplifier. The cell is then patched, the patch broken, and, after compensation for series resistance (>=80%), the voltage protocol is applied while recording the whole cell Ca2+ current response. Voltage protocols: (1) −80 mV holding potential every 20 seconds pulse to −20 mV for 40 msec duration; the effectiveness of the drug in inhibiting the current mediated by the channel is measured directly from measuring the reduction in peak current amplitude initiated by the voltage shift from −80 mV to −20 mV; (2). −100 mV holding potential every 15 seconds pulse to −20 mV for 40 msec duration; the effectiveness of the drug in inhibiting the current mediated by the channel is measured directly from measuring the reduction in peak current amplitude initiated by the shift in potential from −100 mV to […]. The difference in block at the two holding potentials was used to determine the effect of drug at differing levels of inactivation induced by the level of resting state potential of the cells. After obtaining control baseline calcium currents, extracellular solutions containing increasing concentrations of a test compound are washed on. Once steady state inhibition at a given compound concentration is reached, a higher concentration of compound is applied. % inhibition of the peak inward control Ca2+ current during the depolarizing step to −20 mV is plotted as a function of compound concentration.

In assay [2] the target is T3, Cav3.1 (T-type channel alpha-1G) (Homo sapiens, UniProt O43497).
T3 construct: expressed in transfected cells; host or cells: HEK 293
T3 sequence (O43497 whole entry): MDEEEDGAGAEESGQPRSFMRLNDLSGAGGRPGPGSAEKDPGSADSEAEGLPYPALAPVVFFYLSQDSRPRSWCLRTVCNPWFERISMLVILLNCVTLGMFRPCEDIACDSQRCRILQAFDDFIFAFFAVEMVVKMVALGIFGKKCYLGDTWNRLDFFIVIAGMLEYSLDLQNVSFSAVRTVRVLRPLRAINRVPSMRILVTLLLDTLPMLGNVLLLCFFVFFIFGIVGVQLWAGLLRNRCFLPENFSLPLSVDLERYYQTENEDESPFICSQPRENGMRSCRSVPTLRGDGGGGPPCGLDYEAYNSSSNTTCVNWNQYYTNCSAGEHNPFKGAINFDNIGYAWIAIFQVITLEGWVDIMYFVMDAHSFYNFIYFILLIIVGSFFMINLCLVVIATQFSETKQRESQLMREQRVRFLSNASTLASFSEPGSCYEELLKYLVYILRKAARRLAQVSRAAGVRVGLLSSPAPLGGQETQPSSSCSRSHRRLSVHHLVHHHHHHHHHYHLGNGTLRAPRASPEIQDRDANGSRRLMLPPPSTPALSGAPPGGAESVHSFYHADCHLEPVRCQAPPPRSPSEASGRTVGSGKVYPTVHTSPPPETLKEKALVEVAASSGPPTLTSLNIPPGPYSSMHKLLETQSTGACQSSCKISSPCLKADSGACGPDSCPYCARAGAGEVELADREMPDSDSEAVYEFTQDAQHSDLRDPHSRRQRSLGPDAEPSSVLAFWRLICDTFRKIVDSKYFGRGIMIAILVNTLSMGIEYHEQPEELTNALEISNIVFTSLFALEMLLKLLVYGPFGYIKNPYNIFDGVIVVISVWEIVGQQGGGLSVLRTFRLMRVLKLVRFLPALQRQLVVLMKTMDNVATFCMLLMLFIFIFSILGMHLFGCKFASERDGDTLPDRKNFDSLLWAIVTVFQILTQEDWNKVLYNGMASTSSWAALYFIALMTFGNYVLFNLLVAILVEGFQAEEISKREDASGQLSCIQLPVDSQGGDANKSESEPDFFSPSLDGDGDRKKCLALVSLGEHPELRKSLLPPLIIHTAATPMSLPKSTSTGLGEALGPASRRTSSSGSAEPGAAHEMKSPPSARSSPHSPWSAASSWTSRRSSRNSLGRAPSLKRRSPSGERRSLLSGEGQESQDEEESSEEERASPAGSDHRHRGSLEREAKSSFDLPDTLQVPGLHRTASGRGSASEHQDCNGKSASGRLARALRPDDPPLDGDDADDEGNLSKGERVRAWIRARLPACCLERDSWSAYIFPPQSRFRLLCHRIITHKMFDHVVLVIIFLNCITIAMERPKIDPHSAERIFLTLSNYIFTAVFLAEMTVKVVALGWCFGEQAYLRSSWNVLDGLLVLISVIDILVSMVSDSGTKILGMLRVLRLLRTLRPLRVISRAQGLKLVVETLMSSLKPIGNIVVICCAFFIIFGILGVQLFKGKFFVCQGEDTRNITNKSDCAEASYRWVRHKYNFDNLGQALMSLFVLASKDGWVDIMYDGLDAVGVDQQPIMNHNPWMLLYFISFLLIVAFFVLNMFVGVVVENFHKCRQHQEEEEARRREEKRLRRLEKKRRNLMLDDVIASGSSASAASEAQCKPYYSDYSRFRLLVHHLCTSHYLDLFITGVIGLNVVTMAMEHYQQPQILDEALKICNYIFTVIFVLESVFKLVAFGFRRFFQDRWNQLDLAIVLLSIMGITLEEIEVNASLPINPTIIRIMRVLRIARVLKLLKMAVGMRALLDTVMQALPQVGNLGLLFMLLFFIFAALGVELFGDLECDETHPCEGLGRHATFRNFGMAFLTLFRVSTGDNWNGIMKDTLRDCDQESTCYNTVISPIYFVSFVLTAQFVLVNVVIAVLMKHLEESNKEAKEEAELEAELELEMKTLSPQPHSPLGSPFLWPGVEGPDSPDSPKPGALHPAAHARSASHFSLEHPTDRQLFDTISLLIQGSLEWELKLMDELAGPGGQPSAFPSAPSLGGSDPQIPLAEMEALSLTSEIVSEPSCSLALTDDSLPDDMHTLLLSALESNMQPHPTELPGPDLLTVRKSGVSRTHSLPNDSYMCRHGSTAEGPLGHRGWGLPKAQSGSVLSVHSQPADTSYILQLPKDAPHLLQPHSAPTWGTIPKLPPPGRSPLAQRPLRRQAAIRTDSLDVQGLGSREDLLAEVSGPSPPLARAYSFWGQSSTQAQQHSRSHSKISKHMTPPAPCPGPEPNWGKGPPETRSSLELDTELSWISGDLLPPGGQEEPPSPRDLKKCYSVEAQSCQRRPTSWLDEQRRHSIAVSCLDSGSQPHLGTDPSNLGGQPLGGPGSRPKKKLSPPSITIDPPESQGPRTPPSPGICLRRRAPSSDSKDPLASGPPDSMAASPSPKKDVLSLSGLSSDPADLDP
In words: T-type calcium channel voltage-clamp assay, Cav3.1. Conditions: read-out: Cav 3.1 IC50. As for the experimental part: as §1, §2

T2 sequence (O95180 whole entry): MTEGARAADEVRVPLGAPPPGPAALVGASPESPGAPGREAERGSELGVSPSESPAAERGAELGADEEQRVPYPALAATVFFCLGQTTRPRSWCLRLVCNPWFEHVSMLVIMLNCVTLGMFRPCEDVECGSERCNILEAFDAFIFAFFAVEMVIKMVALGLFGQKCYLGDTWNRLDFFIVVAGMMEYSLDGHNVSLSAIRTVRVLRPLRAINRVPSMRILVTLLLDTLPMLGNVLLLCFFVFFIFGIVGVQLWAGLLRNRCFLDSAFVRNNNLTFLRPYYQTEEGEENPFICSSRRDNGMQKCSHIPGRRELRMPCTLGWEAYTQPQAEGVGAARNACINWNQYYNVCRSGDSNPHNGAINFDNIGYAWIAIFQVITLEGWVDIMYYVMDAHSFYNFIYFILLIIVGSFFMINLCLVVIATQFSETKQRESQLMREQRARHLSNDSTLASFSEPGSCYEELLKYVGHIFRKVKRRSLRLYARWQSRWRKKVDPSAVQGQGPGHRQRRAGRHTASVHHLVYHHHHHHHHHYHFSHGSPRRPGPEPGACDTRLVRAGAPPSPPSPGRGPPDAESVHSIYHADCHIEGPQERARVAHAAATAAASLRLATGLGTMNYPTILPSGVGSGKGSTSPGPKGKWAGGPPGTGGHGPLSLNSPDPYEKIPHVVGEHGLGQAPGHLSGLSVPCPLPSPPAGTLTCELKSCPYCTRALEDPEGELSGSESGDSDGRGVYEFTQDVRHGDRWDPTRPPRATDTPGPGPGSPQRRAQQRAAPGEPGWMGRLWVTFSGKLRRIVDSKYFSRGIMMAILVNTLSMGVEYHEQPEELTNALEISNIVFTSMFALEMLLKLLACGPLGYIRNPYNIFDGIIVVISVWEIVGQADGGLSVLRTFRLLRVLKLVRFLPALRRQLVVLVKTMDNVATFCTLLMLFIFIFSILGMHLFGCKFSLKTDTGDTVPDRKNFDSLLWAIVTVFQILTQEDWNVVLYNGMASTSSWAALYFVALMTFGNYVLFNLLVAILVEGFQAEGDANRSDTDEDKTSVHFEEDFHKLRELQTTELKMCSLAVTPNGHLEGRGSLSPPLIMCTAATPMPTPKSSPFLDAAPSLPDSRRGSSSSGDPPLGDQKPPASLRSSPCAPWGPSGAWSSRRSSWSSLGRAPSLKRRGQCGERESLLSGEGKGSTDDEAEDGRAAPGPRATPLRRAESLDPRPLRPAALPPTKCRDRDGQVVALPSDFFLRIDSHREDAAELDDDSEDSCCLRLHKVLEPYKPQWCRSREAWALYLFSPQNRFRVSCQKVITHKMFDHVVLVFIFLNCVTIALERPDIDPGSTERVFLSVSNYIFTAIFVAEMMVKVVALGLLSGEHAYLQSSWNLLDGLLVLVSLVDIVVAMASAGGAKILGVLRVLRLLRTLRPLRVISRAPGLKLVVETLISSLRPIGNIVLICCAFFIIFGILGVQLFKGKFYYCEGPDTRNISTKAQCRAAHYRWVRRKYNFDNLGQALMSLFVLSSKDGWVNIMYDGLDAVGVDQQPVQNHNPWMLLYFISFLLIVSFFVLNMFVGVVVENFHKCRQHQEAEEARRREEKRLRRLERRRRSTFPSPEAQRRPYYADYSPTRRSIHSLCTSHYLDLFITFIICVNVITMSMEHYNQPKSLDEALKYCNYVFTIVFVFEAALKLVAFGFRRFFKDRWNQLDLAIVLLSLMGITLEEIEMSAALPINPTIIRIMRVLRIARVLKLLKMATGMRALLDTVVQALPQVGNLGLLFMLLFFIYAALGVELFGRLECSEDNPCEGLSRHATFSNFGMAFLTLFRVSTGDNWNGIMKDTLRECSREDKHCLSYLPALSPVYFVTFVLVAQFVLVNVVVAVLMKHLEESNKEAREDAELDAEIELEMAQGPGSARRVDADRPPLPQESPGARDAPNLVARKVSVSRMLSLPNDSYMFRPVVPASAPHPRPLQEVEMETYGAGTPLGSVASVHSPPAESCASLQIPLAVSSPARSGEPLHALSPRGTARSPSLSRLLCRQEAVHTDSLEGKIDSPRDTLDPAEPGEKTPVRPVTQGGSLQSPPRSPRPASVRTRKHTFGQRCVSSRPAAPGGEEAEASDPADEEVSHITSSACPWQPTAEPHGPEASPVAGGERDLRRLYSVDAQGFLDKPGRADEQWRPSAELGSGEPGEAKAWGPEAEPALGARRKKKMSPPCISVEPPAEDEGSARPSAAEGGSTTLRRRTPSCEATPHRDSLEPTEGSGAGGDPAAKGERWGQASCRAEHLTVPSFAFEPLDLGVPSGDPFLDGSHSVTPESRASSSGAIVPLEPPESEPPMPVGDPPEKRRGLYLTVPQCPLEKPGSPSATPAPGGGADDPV

In the case of `Cc1nc(C(F)(F)F)ccc1C(=O)N1CCN(c2cc(C(C)(C)C)cc(C(C)(C)C)c2)CC1` [Compound 30, (4-(3,5-di-tert-butylphenyl)piperazin-1-yl)(2-methyl-6-(trifluoromethyl)pyridin-3-yl)methanone], the inhibition at 10 µM at Human Cav2.2 channels is 91%. Further, the inhibition at 30 µM on Human Cav2.2 channels turned out to be 100%. Also, the IC50 (in general, the point on the concentration scale where inhibition reaches its midpoint) was 1300 nM on Human Cav2.2 channels, 1150 nM in assay [1] and 970 nM in assay [2].
For `CC(C)(C)C(=O)Nc1ncccc1C(=O)N1CCN(c2cc(C(C)(C)C)cc(C(C)(C)C)c2)CC1` [Compound 8, N-(3-(4-(3,5-di-tert-butylphenyl)piperazine-1-carbonyl)pyridin-2-yl)pivalamide] the same measures were 94%, 95%, 650 nM, 710 nM and 550 nM.
For `CC(C)(C)C(=O)Nc1ccncc1C(=O)N1CCN(c2cc(C(C)(C)C)cc(C(C)(C)C)c2)CC1` [Compound 7, N-(3-(4-(3,5-di-tert-butylphenyl)piperazine-1-carbonyl)pyridin-4-yl)pivalamide] the same measures were 97%, 96%, 300 nM, 660 nM and 470 nM.
For `CC(C)(C)c1cc(N2CCN(C(=O)c3ccc(F)c(C(F)(F)F)c3)CC2)cc(C(C)(C)C)c1` [Compound 16, (4-(3,5-di-tert-butylphenyl)piperazin-1-yl)(4-fluoro-3-(trifluoromethyl)phenyl)methanone], in that order: 96%, 90%, 1460 nM, 690 nM and 680 nM.
With `CC(C)(C)c1cc(N2CCN(C(=O)COc3ccc(F)cc3)CC2)cc(C(C)(C)C)c1` [Compound 13, 1-(4-(3,5-di-tert-butylphenyl)piperazin-1-yl)-2-(4-fluorophenoxy)ethanone], at Human Cav2.2 channels, the inhibition at 10 µM was 97%, the inhibition at 30 µM came to 97% and the IC50 was found to be 620 nM. Also, in assay [1], the IC50 came to 680 nM. In addition, the IC50 in assay [2] stood at 600 nM.
For `CC(C)(C)c1cc(N2CCN(C(=O)c3ccncc3)CC2)cc(C(C)(C)C)c1` [Compound 2, (4-(3,5-di-tert-butylphenyl)piperazin-1-yl)(pyridin-4-yl)methanone], at Human Cav2.2 channels, the inhibition at 10 µM was 90% and the inhibition at 30 µM stood at 94%.
Take `Cc1cc(C(=O)N2CCN(c3cc(C(C)(C)C)cc(C(C)(C)C)c3)CC2)c(C(F)(F)F)o1` [Compound 1, (4-(3,5-di-tert-butylphenyl)piperazin-1-yl)(5-methyl-2-(trifluoromethyl)furan-3-yl)methanone]: on Human Cav2.2 channels, the inhibition at 10 µM is 91% and the inhibition at 30 µM was determined as 101%.
Regarding `CC(C)(C)c1cc(N2CCN(C(=O)c3scc(S(C)(=O)=O)c3Cl)CC2)cc(C(C)(C)C)c1` [Compound 6, (3-chloro-4-(methylsulfonyl)thiophen-2-yl)(4-(3,5-di-tert-butylphenyl)piperazin-1-yl)methanone], on Human Cav2.2 channels, the inhibition at 10 µM came to 86% and the inhibition at 30 µM was 95%.
For `CCCc1cc(C(=O)N2CCN(c3cc(C(C)(C)C)cc(C(C)(C)C)c3)CC2)sc1C` [Compound 44, (4-(3,5-di-tert-butylphenyl)piperazin-1-yl)(5-methyl-4-propylthiophen-2-yl)methanone] the same measures were 65% and 81%.
For `CC(C)(C)c1cc(N2CCN(C(=O)c3ccc(C(C)(C)C)s3)CC2)cc(C(C)(C)C)c1` [Compound 34, (5-tert-butylthiophen-2-yl)(4-(3,5-di-tert-butylphenyl)piperazin-1-yl)methanone] the same measures were 52% and 59%.
For the molecule `COc1ccc(Cl)cc1C(=O)N1CCN(c2cc(C(C)(C)C)cc(C(C)(C)C)c2)CC1` [Compound 9, (5-chloro-2-methoxyphenyl)(4-(3,5-di-tert-butylphenyl)piperazin-1-yl)methanone], at Human Cav2.2 channels, the inhibition at 10 µM was found to be 91% and the inhibition at 30 µM came out at 101%.

For the origin of these results see patent publication US20090270413A1, “DI-T-BUTYLPHENYL PIPERAZINES AS CALCIUM CHANNEL BLOCKERS” (priority 2008, published 2009).
